Structures are written as SMILES.

A short description of assay [1]: Growth inhibition of NCI60 cells after 48 hrs. The class given is functional. As to conditions: Homo sapiens, NCI60, 48 h.
The subject of another assay is SNB-75. Nature of the assay: Growth inhibition of SNB75 cells. As to conditions: Homo sapiens. In kind it is functional.
In another assay the test system is U-251. The experiment in a line: Growth inhibition of U251 cells. The note with it: Homo sapiens. In kind it is functional.
The test system of another assay is Hs-578T. The experiment in a line: Growth inhibition of HS578T cells. The class given is functional. As to conditions: Homo sapiens.
For another assay, the system named is RPMI. The experiment in a line: Inhibition of DNA synthesis in human RPMI cells by [3H]-thymidine incorporation assay. In kind it is functional, cell-based.

A word on the GI50: it is the concentration at which growth is held to half of that of the control. Low readings indicate greater sensitivity of the cells, high ones lower sensitivity of the cells. In turn, `COc1cc(/C=C/c2cc3c(c(OC)c2)O[C@]2(C)CC[C@@H](O)C(C)(C)[C@H]2C3)cc(O)c1CC=C(C)C` returned a 50% growth inhibitory concentration (GI50) in assay [1] of 0.87 µM.

In assay [1], `COc1cc(/C=C/c2cc3c(c(OC)c2)O[C@@]2(C)CC[C@H](O)C(C)(C)[C@@H]2C3)cc(O)c1CC=C(C)C` displayed a concentration for 50% growth inhibition (GI50) of 4.6 µM. This GI50 is about 5.3-fold higher than that of the compound before.

As usually defined, the IC50 is the concentration at which inhibition is half-maximal. Take `COc1cc(/C=C/c2cc(O)c(CC=C(C)C)c(O)c2)cc2c1O[C@@]1(C)CC[C@H](O)C(C)(C)[C@@H]1C2` (single isomer, unassigned): the GI50 in assay [1] was 0.13 µM; in the assay with SNB-75 it was 1.7 µM; in the assay with U-251 it was below 0.01 µM; in the assay on Hs-578T, below 0.01 µM. The half-maximal inhibitory concentration (IC50) in the assay with RPMI came to 3.4 µM.

In assay [1], `COc1cc(/C=C/c2cc(O)c(C/C=C(\C)CCC=C(C)C)c(O)c2)cc2c1O[C@@]1(C)CC[C@H](O)C(C)(C)[C@@H]1C2` (single isomer, unassigned) yielded a 50% growth inhibitory concentration (GI50) of 2.2 µM. Further, half-maximal inhibition in the assay on RPMI (IC50) required 4.5 µM.

Take `COc1cc(/C=C/c2cc(O)c(C/C=C(\C)CCC=C(C)C)c(O)c2)cc2c1O[C@]1(C)CC[C@@H](O)C(C)(C)[C@H]1C2` (single isomer, unassigned) [3-DEOXYSCHWEINFURTHIN B]: the concentration for 50% growth inhibition (GI50) in assay [1] was 0.87 µM. In the assay with RPMI, the IC50 is 0.21 µM.

With `COc1cc(/C=C/c2cc(O)c(CC=C(C)C)c(O)c2)cc2c1O[C@]1(C)CC[C@@H](O)C(C)(C)[C@H]1C2` (single isomer, unassigned) [SCHWEINFURTHIN F], the GI50 in assay [1] was 0.41 µM; in the assay on SNB-75, 0.01 µM; with U-251, 13 µM; with Hs-578T, below 0.01 µM. In the assay with RPMI, this compound registered an IC50 of 0.58 µM.

In assay [1], `CC(C)=CCC/C(C)=C/Cc1c(O)cc(/C=C/c2cc(O)c3c(c2)C[C@@H]2C(C)(C)[C@H](O)[C@H](O)C[C@@]2(C)O3)cc1O` [SCHWEINFURTHIN A] had a concentration for 50% growth inhibition (GI50) of 0.36 µM. In other words, the sub-micromolar range.

For the compound `COc1cc(/C=C/c2cc(O)c(C/C=C(\C)CCC=C(C)C)c(O)c2)cc2c1O[C@]1(C)C[C@@H](O)[C@@H](O)C(C)(C)[C@H]1C2` [SCHWEINFURTHIN B], growth in assay [1] was halved (GI50) at 0.81 µM.

For the compound `CC(C)=CCc1c(O)cc(/C=C/c2cc(O)c3c(c2)C[C@@H]2C(C)(C)[C@H](O)[C@H](O)C[C@@]2(C)O3)cc1O` [VEDELIANIN], in assay [1], it took 0.08 µM to inhibit growth by half (GI50). Compared with the last compound, the GI50 is about 10-fold lower.
